Assay results as given in patent publication US20250161294A1, “COMPOSITIONS AND METHODS FOR TREATMENT OF OCULAR DISORDERS” (Bausch + Lomb Ireland Limited, priority 2023, published 2025).

Legend:
[1] = Solubility of lifitegrast free acid in F6H8; type: physicochemical; settings: lifitegrast free acid added to F6H8 at 0.25% to 10% (w/w); forms a suspension
Text: The lifitegrast is in soluble in F6H8 and forms a suspension. When left standing the lifitegrast settles to form a sediment.

[2] = test system: A. brasiliensis; assay: Antimicrobial properties of F6H8, Ph. Eur. 5.1.3 method; type: cell-based; settings: for Count: inoculum 7 × 10^5
Experimental: (§1) The antimicrobial properties of F6H8 were evaluated according to the Ph. Eur. 5.1.3 method.

[3] = test system: P. aeruginosa; assay: as above; type: cell-based; settings: for Count: inoculum 8 × 10^5
Experimental: as §1

[4] = test system: E. coli; assay: as above; type: cell-based; settings: for Count: inoculum 2 × 10^5
Experimental: as §1

[5] = test system: C. albicans; assay: as above; type: cell-based; settings: for Count: inoculum 9 × 10^5
Experimental: as §1

[6] = test system: S. aureus; assay: as above; type: cell-based; settings: for Count: inoculum 2 × 10^5
[7] = test system: viable bacteria; yeasts and molds; assay: Antimicrobial effectiveness acceptance criteria, Ph. Eur. 5.1.3 (overall); type: cell-based; settings: bacteria: >=2 log reduction at 6 hours, >=3 log at 24 hours, no recovery at 28 days; yeasts and molds: >=2 log at 7 days, no increase at 28 days; no extrinsic preservative
Experimental: as §1

CS(=O)(=O)c1cccc(C[C@H](NC(=O)c2c(Cl)cc3c(c2Cl)CCN(C(=O)c2ccc4ccoc4c2)C3)C(=O)O)c1 [lifitegrast]
Solubility in F6H8 [1]: in soluble

CCCCCCCCC(F)(F)C(F)(F)C(F)(F)C(F)(F)C(F)(F)C(F)(F)F [F6H8, 1-perfluorohexyloctane]
Log reduction ([2]; 0 hour): 0.9
Count ([2]; 0 hour): 8 × 10^4
Log reduction ([2]; 7 days): 2.8
Count ([2]; 7 days): 1 × 10^3
Log reduction ([2]; 28 days): 2.5
Count ([2]; 28 days): 2 × 10^3
Log reduction ([3]; 0 hour): 1.2
Count ([3]; 0 hour): 5 × 10^4
Log reduction ([3]; 6 hours): 3.3
Count ([3]; 6 hours): 4 × 10^2
Log reduction ([3]; 24 hours): 5.0
Count ([3]; 24 hours): 8
Log reduction ([3]; 28 days): 5.9
Count ([3]; 28 days): 0
Log reduction ([4]; 0 hour): 1.0
Count ([4]; 0 hour): 2 × 10^4
Log reduction ([4]; 6 hours): 5.3
Count ([4]; 6 hours): 0
Log reduction ([4]; 24 hours): 5.3
Count ([4]; 24 hours): 0
Log reduction ([4]; 28 days): 5.3
Count ([4]; 28 days): 0
Log reduction ([5]; 0 hour): 2.3
Count ([5]; 0 hour): 5 × 10^3
Log reduction ([5]; 7 days): 6.0
Count ([5]; 7 days): 0
Log reduction ([5]; 28 days): 6.0
Count ([5]; 28 days): 0
Log reduction ([6]; 0 hour): 4.1
Log reduction ([6]; 6 hours): 5.3
Count ([6]; 6 hours): 0
Log reduction ([6]; 24 hours): 5.3
Count ([6]; 24 hours): 0
Log reduction ([6]; 28 days): 5.3
Count ([6]; 28 days): 0
Acceptance criteria of the antimicrobial effectiveness assay [7]: meets the acceptance criteria
